Assay results published in patent publication US6919372B1, “Sustained release pharmaceutical compositions” (Yamanouchi Pharmaceutical Co., Ltd., priority 1997, dated 2005).
Where a name gives a salt, the structure may show the parent alone.

Tests used:
Assay type in all cases: physicochemical
[1] = Test 2: octanol/phosphate buffer partition coefficient of BPS with various cations; settings: for PC of BPS, Equimolar amount: cation added to give equal charge; for PC of BPS, Excess × 20: cation added to give charges 20 times more; for effect of added compound on the partition coefficient of BPS (in words): octanol/phosphate buffer pH 7, compared to no ionic compound added
Experimental: (§1) BPS was dissolved in phosphate buffer solution having pH of 5 to 8 in a concentration of 240 μg/ml. Various cations were added to the mixtures to give equivalent charge to that of BPS or 5 times or 20 times more than that of BPS. The same volume of octanol as that of the aqueous phase was added to the mixture followed by shaking at 37° C. for an hour. After centrifugation, the concentration of the pharmaceutically active substance in the aqueous phase was measured to calculate the partition coefficient.
(§2) partition coefficient=concentration of the pharmaceutically active substance in the octanol phase/concentration of the pharmaceutically active substance in the aqueous phase
A variety of cations were examined with their effect if these cations would affect the partition coefficient of BPS in octanol/phosphate buffer solution (pH 7).
The pharmaceutically active substance was dissolved in an aqueous phase in a concentration of 240 μg/ml. Various cations were added to the solution to give equal charge to that of the pharmaceutically active substance or charges 20 times more than that of the substance. Then the same procedure as in Test 1 was applied to calculate the partition coefficient.

[2] = Test 1: effect of ratio of benzalkonium chloride added and pH on octanol/phosphate buffer partition coefficient of BPS
Experimental: as §1, §2

[3] = Test 3: in vitro release test of gel preparation using various cations; settings: 10 ml phosphate buffer solution (pH 7.4) at 37° C.
Experimental: Each of the gel preparations obtained in Examples 1 to 9 and Comparative Examples 1 to 3 was evaluated, respectively, with regard to the release of the active substance in 10 ml of a phosphate buffer solution (pH 7.4) at 37° C.

[4] = octanol/phosphate buffer pH 7, 37° C., BPS 240 μg/ml

PC of BPS, Equimolar amount [1, 4]	Molecule	PC of BPS, Excess × 20 [1, 4]	effect of added compound on the partition coefficient of BPS (in words) [1]	further results
–	CC#CCC(C)[C@H](O)/C=C/[C@@H]1[C@H]2c3cccc(CCCC(=O)O)c3O[C@H]2C[C@H]1O (relative stereo) [BPS, (±)-(1R*,2R*,3aS*,8bS*)-2,3,3a,8b-tetrahydro-2-hydroxy-1-[(e)-(3S*)-3-hydroxy-4-methyl-1-octen-6-ynyl]-1H-cyclopenta[b]benzofuran-5-butanoic acid, reference compound]	–	–	PC of BPS, no cation added ([1]; octanol/phosphate buffer pH 7, 37° C., BPS 240 μg/ml, cation added: None): 16.2; partition coefficient of BPS as the pH increased ([2]; phosphate buffer pH 5 to 8, FIG. 1): decreased as the pH increased
59.5	CCCCCCCCCCCCCCCCCCCCCC[N+](C)(C)C.[Cl-] [Behenyltrimethylammonium chloride]	–	–	–
17.7	CCCNC(C)(C)COC(=O)c1ccccc1 [Meprylcaine hydrochloride, reference compound]	53.3	increase	–
64.5	CCCCCCCCCCCCCC[N+](C)(C)Cc1ccccc1.[Cl-] [Myristyldimethylbenzylammonium chloride]	1210	–	–
60.9	CCCCCCCC[N+](C)(C)Cc1ccccc1.[Cl-] [Octyldimethylbenzylammonium chloride]	568	–	–
30.4	CC(=O)O.CCCCCCCC/C=C\CCCCCCCCN [Oleylamine acetate]	473	–	–
32.6	CC(=O)O.CCCCCCCCCCCCCCCCCCN [Stearylamine acetate]	158	–	–
62.3	CCCCCCCCCCCCCCCCCC[N+](C)(C)Cc1ccccc1.[Cl-] [Stearyldimethylbenzylammonium chloride]	1350	–	–
83.4	CCCCCCCCCCCCCCCCCC[N+](C)(C)C.[Cl-] [Stearyltrimethylammonium chloride]	995	–	–
–	CC[N+](CC)(CC)Cc1ccccc1.[Cl-] [Triethylbenzylammonium chloride]	–	increase	–
–	Cl.N=C(N)NCCC[C@H](N)C(=O)O [arginine hydrochloride, reference compound]	–	no increase	release of the active substance from gel preparation [3]: no delayed release
–	[Cl-].[Cl-].[Mg+2] [magnesium chloride, reference compound]	–	no increase	–
–	O=S(=O)([O-])[O-].[Mg+2] [magnesium sulfate]	–	–	release of the active substance from gel preparation [3]: no delayed release
–	[Cl-].[Na+] [sodium chloride]	–	–	partition coefficient of BPS when sodium chloride was added to make the solution isotonic ([2]; 20 times of equivalent molar ratio of benzalkonium chloride included): decreased
–	CCCCCCCCCCCCOS(=O)(=O)[O-].[Na+] [sodium lauryl sulfate, reference compound]	–	no change	–
–	protamine sulfate [reference compound]	–	did not affect	–
–	sorbitan sesquioleate [reference compound]	–	no change	–

Molecule	PC of BPS, Equimolar amount [1, 4]	PC of BPS, Excess × 20 [1, 4]	effect of added compound on the partition coefficient of BPS (in words) [1]	further results
CC(C)(C)CC(C)(C)c1ccc(OCCOCC[N+](C)(C)Cc2ccccc2)cc1 [Benzethonium chloride]	70.8	1180	–	–
CCCCCCCCCCCCCCCC[N+](C)(C)C.[Cl-] [Cetyltrimethylammonium chloride]	91.6	935	–	–
CCCCCCCCCCCC[N+](C)(C)Cc1ccccc1.[Cl-] [Lauryldimethylbenzylammonium chloride]	71.2	1220	–	–
CCCCCCCCCCCC[n+]1ccccc1.[Cl-] [Laurylpyridinium chloride]	75.0	1200	–	–
CCCCCCCCCCCC[N+](C)(C)C.[Cl-] [Lauryltrimethylammonium chloride]	83.5	985	increase	–
CCN(CC)CC(=O)Nc1c(C)cccc1C [Lidocaine hydrochloride, reference compound]	17.1	37.5	–	–
CCCC[N+](CCCC)(CCCC)Cc1ccccc1.[Cl-] [Tributylbenzylammonium chloride]	24.5	140	–	–
